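48-hour exposure; five concentrations; linearly interpolated endpoints. TGI: total growth inhibition.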
What was measured:
Assay in all cases: NCI tumour cell line growth inhibition, 48 h
786-0 renal = test system: 786-0 renal
A498 renal = test system: A498 renal
A549 NSCLC = test system: A549 NSCLC
ACHN renal = test system: ACHN renal
CCRF-CEM leukemia = test system: CCRF-CEM leukemia
COLO 205 colon = test system: COLO 205 colon
DLD-1 colon = test system: DLD-1 colon
DMS 114 small cell lung = test system: DMS 114 small cell lung
DMS 273 small cell lung = test system: DMS 273 small cell lung
EKVX NSCLC = test system: EKVX NSCLC
HCC-2998 colon = test system: HCC-2998 colon
HCT-116 colon = test system: HCT-116 colon
HCT-15 colon = test system: HCT-15 colon
HL-60(TB) leukemia = test system: HL-60(TB) leukemia
HOP-62 NSCLC = test system: HOP-62 NSCLC
HT29 colon = test system: HT29 colon
IGROV1 ovarian = test system: IGROV1 ovarian
K-562 leukemia = test system: K-562 leukemia
KM20L2 colon = test system: KM20L2 colon
LOX IMVI melanoma = test system: LOX IMVI melanoma
LXFL 529 NSCLC = test system: LXFL 529 NSCLC
M14 melanoma = test system: M14 melanoma
M19-MEL melanoma = test system: M19-MEL melanoma
MALME-3M melanoma = test system: MALME-3M melanoma
MOLT-4 leukemia = test system: MOLT-4 leukemia
NCI-H226 lung = test system: NCI-H226 lung
NCI-H23 lung = test system: NCI-H23 lung
NCI-H460 lung = test system: NCI-H460 lung
OVCAR-3 ovarian = test system: OVCAR-3 ovarian
OVCAR-4 ovarian = test system: OVCAR-4 ovarian
OVCAR-8 ovarian = test system: OVCAR-8 ovarian
RPMI-8226 leukemia = test system: RPMI-8226 leukemia
RXF 393 renal = test system: RXF 393 renal
RXF-631 renal = test system: RXF-631 renal
SF-268 CNS = test system: SF-268 CNS
SF-295 CNS = test system: SF-295 CNS
SF-539 CNS = test system: SF-539 CNS
SK-MEL-2 melanoma = test system: SK-MEL-2 melanoma
SK-MEL-28 melanoma = test system: SK-MEL-28 melanoma
SK-MEL-5 melanoma = test system: SK-MEL-5 melanoma
SN12C renal = test system: SN12C renal
SNB-19 CNS = test system: SNB-19 CNS
SNB-75 CNS = test system: SNB-75 CNS
SR leukemia = test system: SR leukemia
SW-620 colon = test system: SW-620 colon
TK-10 renal = test system: TK-10 renal
U251 CNS = test system: U251 CNS
UACC-257 melanoma = test system: UACC-257 melanoma
UACC-62 melanoma = test system: UACC-62 melanoma
UO-31 renal = test system: UO-31 renal
XF 498 CNS = test system: XF 498 CNS
HOP-18 NSCLC = test system: HOP-18 NSCLC
KM12 colon = test system: KM12 colon
OVCAR-5 ovarian = test system: OVCAR-5 ovarian
HOP-92 NSCLC = test system: HOP-92 NSCLC
NCI-H522 lung = test system: NCI-H522 lung
SK-OV-3 ovarian = test system: SK-OV-3 ovarian
SNB-78 CNS = test system: SNB-78 CNS
CAKI-1 renal = test system: CAKI-1 renal

CC(C)C1CN(C(=O)OCc2ccccc2)C2N1C(=O)C2(C)OCc1ccccc1 (centres undefined)
TGI (786-0 renal): > 100 µM | TGI (A498 renal): 95.8 µM | TGI (A549 NSCLC): > 100 µM | TGI (ACHN renal): > 100 µM | TGI (CCRF-CEM leukemia): > 100 µM | TGI (COLO 205 colon): 37.2 µM | TGI (DLD-1 colon): > 100 µM | TGI (DMS 114 small cell lung): > 100 µM | TGI (DMS 273 small cell lung): > 100 µM | TGI (EKVX NSCLC): > 100 µM | TGI (HCC-2998 colon): > 100 µM | TGI (HCT-116 colon): > 100 µM | TGI (HCT-15 colon): > 100 µM | TGI (HL-60(TB) leukemia): 66.9 µM | TGI (HOP-62 NSCLC): > 100 µM | TGI (HT29 colon): > 100 µM | TGI (IGROV1 ovarian): > 100 µM | TGI (K-562 leukemia): > 100 µM | TGI (KM20L2 colon): > 100 µM | TGI (LOX IMVI melanoma): > 100 µM | TGI (LXFL 529 NSCLC): > 100 µM | TGI (M14 melanoma): > 100 µM | TGI (M19-MEL melanoma): > 100 µM | TGI (MALME-3M melanoma): > 100 µM | TGI (MOLT-4 leukemia): 84 µM | TGI (NCI-H226 lung): 81 µM | TGI (NCI-H23 lung): > 100 µM | TGI (NCI-H460 lung): > 100 µM | TGI (OVCAR-3 ovarian): > 100 µM | TGI (OVCAR-4 ovarian): > 100 µM | TGI (OVCAR-8 ovarian): > 100 µM | TGI (RPMI-8226 leukemia): 66.6 µM | TGI (RXF 393 renal): > 100 µM | TGI (RXF-631 renal): > 100 µM | TGI (SF-268 CNS): > 100 µM | TGI (SF-295 CNS): > 100 µM | TGI (SF-539 CNS): > 100 µM | TGI (SK-MEL-2 melanoma): 73.5 µM | TGI (SK-MEL-28 melanoma): > 100 µM | TGI (SK-MEL-5 melanoma): 29.5 µM | TGI (SN12C renal): > 100 µM | TGI (SNB-19 CNS): > 100 µM | TGI (SNB-75 CNS): 59.5 µM | TGI (SR leukemia): 98 µM | TGI (SW-620 colon): > 100 µM | TGI (TK-10 renal): > 100 µM | TGI (U251 CNS): > 100 µM | TGI (UACC-257 melanoma): 96.9 µM | TGI (UACC-62 melanoma): > 100 µM | TGI (UO-31 renal): 68.8 µM | TGI (XF 498 CNS): 33.5 µM

CCCC(=O)OC[n+]1ccc2c(C)c3[nH]c4ccccc4c3c(C)c2c1
TGI (CCRF-CEM leukemia): > 100 µM | TGI (HL-60(TB) leukemia): > 100 µM | TGI (HOP-18 NSCLC): 2.99 µM | TGI (HT29 colon): > 100 µM | TGI (K-562 leukemia): > 100 µM | TGI (KM12 colon): 1.8 µM | TGI (M19-MEL melanoma): > 100 µM | TGI (MOLT-4 leukemia): 3.04 µM | TGI (OVCAR-5 ovarian): 2.34 µM | TGI (SNB-75 CNS): > 100 µM | TGI (SR leukemia): 17.5 µM | TGI (TK-10 renal): 5.5 µM | TGI (UO-31 renal): 5.59 µM

Nc1c(S(=O)(=O)c2ccc(Cl)cc2)c2nc3ccccc3nc2n2ccnc12
TGI (786-0 renal): > 100 µM | TGI (A549 NSCLC): > 100 µM | TGI (ACHN renal): > 100 µM | TGI (CCRF-CEM leukemia): > 100 µM | TGI (COLO 205 colon): > 100 µM | TGI (DLD-1 colon): > 100 µM | TGI (DMS 114 small cell lung): > 100 µM | TGI (DMS 273 small cell lung): > 100 µM | TGI (EKVX NSCLC): > 100 µM | TGI (HCC-2998 colon): > 100 µM | TGI (HCT-116 colon): > 100 µM | TGI (HCT-15 colon): > 100 µM | TGI (HL-60(TB) leukemia): > 100 µM | TGI (HOP-18 NSCLC): 79.3 µM | TGI (HOP-92 NSCLC): > 100 µM | TGI (HT29 colon): > 100 µM | TGI (IGROV1 ovarian): > 100 µM | TGI (K-562 leukemia): > 100 µM | TGI (KM12 colon): > 100 µM | TGI (LXFL 529 NSCLC): > 100 µM | TGI (M14 melanoma): > 100 µM | TGI (M19-MEL melanoma): > 100 µM | TGI (MALME-3M melanoma): > 100 µM | TGI (MOLT-4 leukemia): > 100 µM | TGI (NCI-H226 lung): 84.1 µM | TGI (NCI-H23 lung): > 100 µM | TGI (NCI-H460 lung): > 100 µM | TGI (NCI-H522 lung): > 100 µM | TGI (OVCAR-3 ovarian): > 100 µM | TGI (OVCAR-4 ovarian): 33.3 µM | TGI (OVCAR-5 ovarian): > 100 µM | TGI (OVCAR-8 ovarian): > 100 µM | TGI (RPMI-8226 leukemia): > 100 µM | TGI (SF-268 CNS): > 100 µM | TGI (SF-295 CNS): > 100 µM | TGI (SF-539 CNS): 36.2 µM | TGI (SK-MEL-2 melanoma): > 100 µM | TGI (SK-MEL-28 melanoma): > 100 µM | TGI (SK-MEL-5 melanoma): > 100 µM | TGI (SK-OV-3 ovarian): > 100 µM | TGI (SN12C renal): > 100 µM | TGI (SNB-19 CNS): > 100 µM | TGI (SNB-75 CNS): 93.2 µM | TGI (SNB-78 CNS): > 100 µM | TGI (TK-10 renal): 78.2 µM | TGI (U251 CNS): > 100 µM | TGI (UACC-257 melanoma): > 100 µM | TGI (UO-31 renal): > 100 µM | TGI (XF 498 CNS): > 100 µM

Cc1cc(C)nc(NS(=O)(=O)c2ccc(Nc3c4ccccc4nc4c(C(=O)N5CCN(CCO)CC5)cccc34)cc2)n1
TGI (786-0 renal): > 100 µM | TGI (A498 renal): > 100 µM | TGI (A549 NSCLC): > 100 µM | TGI (ACHN renal): > 100 µM | TGI (CAKI-1 renal): > 100 µM | TGI (CCRF-CEM leukemia): > 100 µM | TGI (COLO 205 colon): > 100 µM | TGI (DLD-1 colon): > 100 µM | TGI (DMS 114 small cell lung): > 100 µM | TGI (DMS 273 small cell lung): > 100 µM | TGI (EKVX NSCLC): > 100 µM | TGI (HCC-2998 colon): > 100 µM | TGI (HCT-116 colon): > 100 µM | TGI (HCT-15 colon): > 100 µM | TGI (HL-60(TB) leukemia): > 100 µM | TGI (HOP-18 NSCLC): > 100 µM | TGI (HOP-62 NSCLC): > 100 µM | TGI (HOP-92 NSCLC): > 100 µM | TGI (HT29 colon): > 100 µM | TGI (IGROV1 ovarian): > 100 µM | TGI (K-562 leukemia): > 100 µM | TGI (KM12 colon): > 100 µM | TGI (KM20L2 colon): > 100 µM | TGI (LOX IMVI melanoma): > 100 µM | TGI (LXFL 529 NSCLC): > 100 µM | TGI (M14 melanoma): > 100 µM | TGI (M19-MEL melanoma): > 100 µM | TGI (MALME-3M melanoma): > 100 µM | TGI (MOLT-4 leukemia): > 100 µM | TGI (NCI-H226 lung): > 100 µM | TGI (NCI-H23 lung): > 100 µM | TGI (NCI-H460 lung): > 100 µM | TGI (OVCAR-3 ovarian): > 100 µM | TGI (OVCAR-4 ovarian): > 100 µM | TGI (OVCAR-5 ovarian): > 100 µM | TGI (OVCAR-8 ovarian): > 100 µM | TGI (RXF 393 renal): > 100 µM | TGI (SF-268 CNS): > 100 µM | TGI (SF-295 CNS): > 100 µM | TGI (SF-539 CNS): > 100 µM | TGI (SK-MEL-2 melanoma): > 100 µM | TGI (SK-MEL-28 melanoma): > 100 µM | TGI (SK-MEL-5 melanoma): > 100 µM | TGI (SK-OV-3 ovarian): > 100 µM | TGI (SN12C renal): > 100 µM | TGI (SNB-19 CNS): > 100 µM | TGI (SNB-75 CNS): > 100 µM | TGI (SNB-78 CNS): > 100 µM | TGI (SR leukemia): > 100 µM | TGI (SW-620 colon): > 100 µM | TGI (TK-10 renal): > 100 µM | TGI (U251 CNS): > 100 µM | TGI (UACC-257 melanoma): > 100 µM | TGI (UACC-62 melanoma): > 100 µM | TGI (UO-31 renal): > 100 µM | TGI (XF 498 CNS): > 100 µM
